# Results: US5922324A, “Propolis extract with improved water-solubility” (Kabushiki Kaisha Hayashibara Seibutsu Kagaku Kenkyujo, priority 1997, dated 1999)
# Experiments:
# [1] = Confirmation of insolubilized substance C (HPLC of supernatant after 101-fold dilution); format: physicochemical
# Excerpt: A propolis mass was disrupted, injected into 3 columns and fed with 50 v/v % aqueous ethanol solution by counter-current extraction method to dissolve and extract the effective ingredients of propolis. The extract was filtered to obtain a liquid propolis extract containing about 20 w/w % dry solid in a yield of about 30% of the material propolis, d.s.b.
# The pH of the sample was 5.0 when measured with a pH-meter. The sample was placed in a beaker and diluted with water by 101-fold into a dilute aqueous ethanol solution in the form of a white suspension which was then allowed to stand at 25° C. for an hour under gentle stirring conditions and centrifuged to obtain a supernatant. High-performance liquid chromatography (HPLC) was used to quantify the concentration of substance C in the supernatant according to the method as described in Bioscience, Biotechnology, and Biochemistry, Vol. 58, No. 5, pp. 945-946 (1994). As a control, the sample was diluted by 101-fold with ethanol in place of water.
# [2] = Water-solubility of substance C in propolis extract (supernatant concentration); format: physicochemical
# Experimental: The sample in Experiment 1 was mixed with an equal amount of 50 v/v % aqueous ethanol solution either with or without an adequate amount of sodium hydroxide, and the mixture with a pH 5.0 was adjusted to a pH of 5.2, 5.5, 5.8, 6.0, 6.2, 6.4, 6.8, 7.0, 7.2, 7.5 or 8.1 before prepared into an about 10 w/w % liquid propolis extract, d.s.b., as samples used in the following experiments.
# After one-month standing at 25° C., the samples were tested similarly as in Experiments 2-(1) to 2-(4) and subjected to a sensory evaluation using 12 panels.
compound,measurement,setting,value
"CC(C)=CCc1cc(C=CC(=O)O)cc(CC=C(C)C)c1O [substance C, 3-[4-hydroxy-3,5-bis(3-methyl-2-butenyl)phenyl]-2-propenoic acid]",Concentration of substance C in water dilution relative to control diluted with ethanol,[1]; 101-fold dilution,0.06%
same,solubility kinetic,"[1]; dilute aqueous ethanol, organic solvent or mixture, 25° C., pH about 5.0 extract, 10 w/w % d.s.b. in 50 v/v % aqueous ethanol, diluted with water by about 100 folds, read-out: Concentration in which substance C dissolves in dilute aqueous ethanol solution",0.03 µg/mL
same,Concentration of substance C in supernatant of dilution diluted with ethanol (Control),"[1]; diluted with ethanol by 101-fold, control",46.7 ppm
same,Solubilization of substance C on dilution with water (in words),[1]; dilution with water into dilute aqueous ethanol solution,insolubilized most of substance C
same,Amount of substance C of the sample contained in sediments collected by centrifugation,"[1]; sediments dissolved in ethanol, after dilution with water",at least 99%
same,Water-solubility of substance C (in words),[2]; pH dependence,greatly increased when adjusted to a pH of over 5.5
same,improvement of solubility of substance C in dilute aqueous ethanol solution,[2]; pH increased from about 5.0 to 5.5-7.0,15-100 folds
